Data reported in paper PMC8854719, “Phase 1A/1B dose-escalation and -expansion study to evaluate the safety, pharmacokinetics, food effects and antitumor activity of pamiparib in advanced solid tumours” (British Journal of Cancer, 2021).
Marks after values point to notes of the source that are not given here.

Assay: Safety and tolerability: adverse events, dose-limiting toxicities, MTD, RP2D (Phase 1A/1B)
Assay type: in vivo
Description: This was an open-label, Phase 1, dose-escalation/dose-expansion study, conducted across six study centres in Australia. The dose-escalation phase evaluated twice-daily (BID) and once-daily (QD) dosing, and the dose-expansion phase evaluated the BID RP2D from the dose-escalation phase and food effects (Fig. 1). The food-effects cohort comprised two sequences: fast followed by fed (sequence 1) and fed followed by fast (sequence 2). […] The decision to proceed to the next dose cohort was determined by the Safety Monitoring Committee and followed a modified 3 + 3 escalation scheme. […] When ≥2 DLTs occurred in the first 23 days of a dose level, the next lower dose level was declared the MTD. Safety was monitored and DLTs were assessed in all dose cohorts. […] The food-effects cohort investigated the effects of food on the PK of pamiparib in patients with advanced solid tumours.
The QD dosing regimen was added as an amendment to the protocol with the purpose of exploring the feasibility of a more convenient regimen.
Safety and tolerability were assessed throughout the study by monitoring adverse events (AEs), serious AEs, clinical laboratory measurements and physical examinations. Adverse events were categorised according to their severity (National Cancer Institute Common Terminology Criteria for Adverse Events v4.03) and relationship to the study treatment.

## C[C@]12CCCN1CC1=NNC(=O)c3cc(F)cc4[nH]c2c1c34 [pamiparib]
20 mg BID (n = 3)
  Ascites, AE of any grade: 0 (0.0) n (%)
  Back pain, AE of any grade: 0 (0.0) n (%)
  Constipation, AE of any grade: 0 (0.0) n (%)
  Cough, AE of any grade: 0 (0.0) n (%)
  Decreased appetite, AE of any grade: 0 (0.0) n (%)
  Diarrhoea, AE of any grade: 2 (66.7) n (%)
  Dose-limiting toxicity: 0 (0.0) n (%)
  Dyspnoea, AE of any grade: 1 (33.3) n (%)
  Fatigue, AE of any grade: 3 (100.0) n (%)
  Headache, AE of any grade: 1 (33.3) n (%)
  Hypoalbuminemia, AE of any grade: 0 (0.0) n (%)
  Hypomagnesemia, AE of any grade: 1 (33.3) n (%)
  Hypophosphatemia, AE of any grade: 0 (0.0) n (%)
  Increased AST, AE of any grade: 0 (0.0) n (%)
  Muscle spasms, AE of any grade: 0 (0.0) n (%)
  Nausea, AE of any grade: 2 (66.7) n (%)
  Neutropenia, AE of any grade: 0 (0.0) n (%)
  Non-cardiac chest pain, AE of any grade: 0 (0.0) n (%)
  Pain in extremity, AE of any grade: 1 (33.3) n (%)
  Peripheral sensory neuropathy, AE of any grade: 1 (33.3) n (%)
  Pleural effusion, AE of any grade: 0 (0.0) n (%)
  Pyrexia, AE of any grade: 0 (0.0) n (%)
  Treatment-emergent AE: 3 (100.0) n (%)
  Treatment-emergent AE: Grade 3 or higher: 1 (33.3) n (%)
  Treatment-emergent AE: Leading to death: 0 (0.0) n (%)
  Treatment-emergent AE: Leading to dose interruption: 3 (100.0) n (%)
  Treatment-emergent AE: Leading to dose modification: 3 (100.0) n (%)
  Treatment-emergent AE: Leading to dose reduction: 1 (33.3) n (%)
  Treatment-emergent AE: Leading to treatment discontinuation: 0 (0.0) n (%)
  Treatment-emergent AE: Serious: 1 (33.3) n (%)
  Treatment-related AE: 3 (100.0) n (%)
  Treatment-related AE: Grade 3 or higher: 1 (33.3) n (%)
  Treatment-related AE: Leading to death: 0 (0.0) n (%)
  Treatment-related AE: Leading to dose interruption: 1 (33.3) n (%)
  Treatment-related AE: Leading to dose modification: 1 (33.3) n (%)
  Treatment-related AE: Leading to dose reduction: 1 (33.3) n (%)
  Treatment-related AE: Leading to treatment discontinuation: 0 (0.0) n (%)
  Treatment-related AE: Serious: 0 (0.0) n (%)
  Upper respiratory tract infection, AE of any grade: 0 (0.0) n (%)
  Urinary tract infection, AE of any grade: 1 (33.3) n (%)
  Vomiting, AE of any grade: 2 (66.7) n (%)
40 mg BID (n = 6)
  Abdominal pain, AE of any grade: 0 (0.0) n (%)
  Anaemia, AE of any grade: 2 (33.3) n (%)
  Ascites, AE of any grade: 1 (16.7) n (%)
  Back pain, AE of any grade: 2 (33.3) n (%)
  Constipation, AE of any grade: 1 (16.7) n (%)
  Cough, AE of any grade: 0 (0.0) n (%)
  Decreased appetite, AE of any grade: 0 (0.0) n (%)
  Diarrhoea, AE of any grade: 2 (33.3) n (%)
  Dose-limiting toxicity: 1 (16.7)^a n (%)
  Dyspnoea, AE of any grade: 0 (0.0) n (%)
  Fatigue, AE of any grade: 2 (33.3) n (%)
  Headache, AE of any grade: 2 (33.3) n (%)
  Hypoalbuminemia, AE of any grade: 0 (0.0) n (%)
  Hypomagnesemia, AE of any grade: 0 (0.0) n (%)
  Hypophosphatemia, AE of any grade: 1 (16.7) n (%)
  Increased AST, AE of any grade: 1 (16.7) n (%)
  Muscle spasms, AE of any grade: 0 (0.0) n (%)
  Nausea, AE of any grade: 5 (83.3) n (%)
  Neutropenia, AE of any grade: 2 (33.3) n (%)
  Non-cardiac chest pain, AE of any grade: 0 (0.0) n (%)
  Pain in extremity, AE of any grade: 0 (0.0) n (%)
  Peripheral sensory neuropathy, AE of any grade: 0 (0.0) n (%)
  Pleural effusion, AE of any grade: 0 (0.0) n (%)
  Pyrexia, AE of any grade: 0 (0.0) n (%)
  Treatment-emergent AE: 6 (100.0) n (%)
  Treatment-emergent AE: Grade 3 or higher: 3 (50.0) n (%)
  Treatment-emergent AE: Leading to death: 0 (0.0) n (%)
  Treatment-emergent AE: Leading to dose interruption: 4 (66.7) n (%)
  Treatment-emergent AE: Leading to dose modification: 4 (66.7) n (%)
  Treatment-emergent AE: Leading to dose reduction: 0 (0.0) n (%)
  Treatment-emergent AE: Leading to treatment discontinuation: 1 (16.7) n (%)
  Treatment-emergent AE: Serious: 2 (33.3) n (%)
  Treatment-related AE: 6 (100.0) n (%)
  Treatment-related AE: Grade 3 or higher: 2 (33.3) n (%)
  Treatment-related AE: Leading to death: 0 (0.0) n (%)
  Treatment-related AE: Leading to dose interruption: 3 (50.0) n (%)
  Treatment-related AE: Leading to dose modification: 3 (50.0) n (%)
  Treatment-related AE: Leading to dose reduction: 0 (0.0) n (%)
  Treatment-related AE: Leading to treatment discontinuation: 0 (0.0) n (%)
  Treatment-related AE: Serious: 0 (0.0) n (%)
  Upper respiratory tract infection, AE of any grade: 1 (16.7) n (%)
  Urinary tract infection, AE of any grade: 0 (0.0) n (%)
  Vomiting, AE of any grade: 5 (83.3) n (%)
40 mg BID, n = 1
  Dose-limiting toxicities observed (description): Grade 2 nausea
60 mg BID
  Incidence of nausea: 54.5%
60 mg BID (n = 11)
  Abdominal pain, AE of any grade: 3 (27.3) n (%)
  Anaemia, AE of any grade: 4 (36.4) n (%)
  Ascites, AE of any grade: 0 (0.0) n (%)
  Back pain, AE of any grade: 1 (9.1) n (%)
  Constipation, AE of any grade: 1 (9.1) n (%)
  Cough, AE of any grade: 1 (9.1) n (%)
  Decreased appetite, AE of any grade: 1 (9.1) n (%)
  Diarrhoea, AE of any grade: 4 (36.4) n (%)
  Dose-limiting toxicity: 0 (0.0) n (%)
  Dyspnoea, AE of any grade: 1 (9.1) n (%)
  Fatigue, AE of any grade: 2 (18.2) n (%)
  Headache, AE of any grade: 0 (0.0) n (%)
  Hypoalbuminemia, AE of any grade: 2 (18.2) n (%)
  Hypomagnesemia, AE of any grade: 0 (0.0) n (%)
  Hypophosphatemia, AE of any grade: 1 (9.1) n (%)
  Increased AST, AE of any grade: 1 (9.1) n (%)
  Muscle spasms, AE of any grade: 1 (9.1) n (%)
  Nausea, AE of any grade: 6 (54.5) n (%)
  Neutropenia, AE of any grade: 0 (0.0) n (%)
  Non-cardiac chest pain, AE of any grade: 1 (9.1) n (%)
  Pain in extremity, AE of any grade: 1 (9.1) n (%)
  Peripheral sensory neuropathy, AE of any grade: 1 (9.1) n (%)
  Pleural effusion, AE of any grade: 2 (18.2) n (%)
  Pyrexia, AE of any grade: 0 (0.0) n (%)
  Treatment-emergent AE: 11 (100.0) n (%)
  Treatment-emergent AE: Grade 3 or higher: 9 (81.8) n (%)
  Treatment-emergent AE: Leading to death: 3 (27.3) n (%)
  Treatment-emergent AE: Leading to dose interruption: 8 (72.7) n (%)
  Treatment-emergent AE: Leading to dose modification: 8 (72.7) n (%)
  Treatment-emergent AE: Leading to dose reduction: 0 (0.0) n (%)
  Treatment-emergent AE: Leading to treatment discontinuation: 0 (0.0) n (%)
  Treatment-emergent AE: Serious: 9 (81.8) n (%)
  Treatment-related AE: 7 (63.6) n (%)
  Treatment-related AE: Grade 3 or higher: 1 (9.1) n (%)
  Treatment-related AE: Leading to death: 0 (0.0) n (%)
  Treatment-related AE: Leading to dose interruption: 2 (18.2) n (%)
  Treatment-related AE: Leading to dose modification: 2 (18.2) n (%)
  Treatment-related AE: Leading to dose reduction: 0 (0.0) n (%)
  Treatment-related AE: Leading to treatment discontinuation: 0 (0.0) n (%)
  Treatment-related AE: Serious: 1 (9.1) n (%)
  Upper respiratory tract infection, AE of any grade: 1 (9.1) n (%)
  Urinary tract infection, AE of any grade: 3 (27.3) n (%)
  Vomiting, AE of any grade: 4 (36.4) n (%)
80 mg BID
  Incidence of nausea: 80.0%
80 mg BID (n = 10)
  Abdominal pain, AE of any grade: 2 (20.0) n (%)
  Anaemia, AE of any grade: 4 (40.0) n (%)
